The record followed here is paper PMC7486443, “Generation of Phenothiazine with Potent Anti-TLK1 Activity for Prostate Cancer Therapy” (iScience, 2020).

SMILES strings stand for the structures.

Among the targets are ACVR1B (Homo sapiens, UniProt P36896); ACVR2A (Homo sapiens, UniProt P27037); BLK (Homo sapiens, UniProt P51451); CHEK1 (Homo sapiens, UniProt O14757); FLT3(D835V) (Homo sapiens, UniProt P36888, D835V); FLT4 (Homo sapiens, UniProt P35916); HIPK4 (Homo sapiens, UniProt Q8NE63); LATS2 (Homo sapiens, UniProt Q9NRM7); MYO3A (Homo sapiens, UniProt Q8NEV4); PAK4 (Homo sapiens, UniProt O96013); PIK3CB (Homo sapiens, UniProt P42338).

Assay in all cases: biochemical
Common to all, as to set-up: DiscoverX KINOMEscan scanMAX competition binding panel, single concentration, percent of control; remaining binding: dose or concentration left out as unconfirmed
Holding throughout (details): KINOMEscan binding, percent of control; read-out: Table S4_SCANMAX REPORT - related to Fig. 1 / Percent Control

Another experiment addresses T1, ASK1 (Homo sapiens, UniProt Q99683).
T1 construct: gene MAP3K5

The next experiment has as its target T2, BIKE (Homo sapiens, UniProt Q9NSY1).
T2 construct: gene BMP2K

For a further experiment, the target named is T3, CDC2L1 (Homo sapiens, UniProt P21127).
T3 construct: gene CDK11B

The next experiment addresses T4, DCAMKL2 (Homo sapiens, UniProt Q8N568).
T4 construct: gene DCLK2

Another experiment deals with T5, MLK2 (Homo sapiens, UniProt Q02779).
T5 construct: gene MAP3K10

In experiment [1] the target is T6, RPS6KA4(Kin.Dom.1-N-terminal) (Homo sapiens, UniProt O75676).
T6 construct: Kin.Dom.1-N-terminal

Another experiment deals with T7, S6K1 (Homo sapiens, UniProt P23443).
T7 construct: gene RPS6KB1

T6 sequence (O75676 whole entry): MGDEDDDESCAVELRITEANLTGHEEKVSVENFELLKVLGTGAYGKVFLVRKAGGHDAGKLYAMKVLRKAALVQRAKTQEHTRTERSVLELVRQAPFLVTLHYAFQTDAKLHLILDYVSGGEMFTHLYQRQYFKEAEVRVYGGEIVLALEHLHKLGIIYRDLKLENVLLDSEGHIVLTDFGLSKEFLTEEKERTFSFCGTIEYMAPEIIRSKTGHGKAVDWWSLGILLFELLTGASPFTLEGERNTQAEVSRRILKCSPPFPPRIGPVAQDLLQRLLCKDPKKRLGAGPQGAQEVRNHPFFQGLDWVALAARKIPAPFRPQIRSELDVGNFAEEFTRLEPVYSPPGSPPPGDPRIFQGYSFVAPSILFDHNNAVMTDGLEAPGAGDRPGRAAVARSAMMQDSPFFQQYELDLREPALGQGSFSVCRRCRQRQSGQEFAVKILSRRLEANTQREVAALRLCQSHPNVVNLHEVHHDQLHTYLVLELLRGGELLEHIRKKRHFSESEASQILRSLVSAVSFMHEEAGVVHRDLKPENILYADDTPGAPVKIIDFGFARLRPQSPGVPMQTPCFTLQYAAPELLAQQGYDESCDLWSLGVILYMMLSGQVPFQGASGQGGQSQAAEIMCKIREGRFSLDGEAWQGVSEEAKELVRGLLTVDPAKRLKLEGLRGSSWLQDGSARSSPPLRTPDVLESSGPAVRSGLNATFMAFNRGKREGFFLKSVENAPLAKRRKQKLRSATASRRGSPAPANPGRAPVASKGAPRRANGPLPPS
T1 sequence (Q99683 whole entry): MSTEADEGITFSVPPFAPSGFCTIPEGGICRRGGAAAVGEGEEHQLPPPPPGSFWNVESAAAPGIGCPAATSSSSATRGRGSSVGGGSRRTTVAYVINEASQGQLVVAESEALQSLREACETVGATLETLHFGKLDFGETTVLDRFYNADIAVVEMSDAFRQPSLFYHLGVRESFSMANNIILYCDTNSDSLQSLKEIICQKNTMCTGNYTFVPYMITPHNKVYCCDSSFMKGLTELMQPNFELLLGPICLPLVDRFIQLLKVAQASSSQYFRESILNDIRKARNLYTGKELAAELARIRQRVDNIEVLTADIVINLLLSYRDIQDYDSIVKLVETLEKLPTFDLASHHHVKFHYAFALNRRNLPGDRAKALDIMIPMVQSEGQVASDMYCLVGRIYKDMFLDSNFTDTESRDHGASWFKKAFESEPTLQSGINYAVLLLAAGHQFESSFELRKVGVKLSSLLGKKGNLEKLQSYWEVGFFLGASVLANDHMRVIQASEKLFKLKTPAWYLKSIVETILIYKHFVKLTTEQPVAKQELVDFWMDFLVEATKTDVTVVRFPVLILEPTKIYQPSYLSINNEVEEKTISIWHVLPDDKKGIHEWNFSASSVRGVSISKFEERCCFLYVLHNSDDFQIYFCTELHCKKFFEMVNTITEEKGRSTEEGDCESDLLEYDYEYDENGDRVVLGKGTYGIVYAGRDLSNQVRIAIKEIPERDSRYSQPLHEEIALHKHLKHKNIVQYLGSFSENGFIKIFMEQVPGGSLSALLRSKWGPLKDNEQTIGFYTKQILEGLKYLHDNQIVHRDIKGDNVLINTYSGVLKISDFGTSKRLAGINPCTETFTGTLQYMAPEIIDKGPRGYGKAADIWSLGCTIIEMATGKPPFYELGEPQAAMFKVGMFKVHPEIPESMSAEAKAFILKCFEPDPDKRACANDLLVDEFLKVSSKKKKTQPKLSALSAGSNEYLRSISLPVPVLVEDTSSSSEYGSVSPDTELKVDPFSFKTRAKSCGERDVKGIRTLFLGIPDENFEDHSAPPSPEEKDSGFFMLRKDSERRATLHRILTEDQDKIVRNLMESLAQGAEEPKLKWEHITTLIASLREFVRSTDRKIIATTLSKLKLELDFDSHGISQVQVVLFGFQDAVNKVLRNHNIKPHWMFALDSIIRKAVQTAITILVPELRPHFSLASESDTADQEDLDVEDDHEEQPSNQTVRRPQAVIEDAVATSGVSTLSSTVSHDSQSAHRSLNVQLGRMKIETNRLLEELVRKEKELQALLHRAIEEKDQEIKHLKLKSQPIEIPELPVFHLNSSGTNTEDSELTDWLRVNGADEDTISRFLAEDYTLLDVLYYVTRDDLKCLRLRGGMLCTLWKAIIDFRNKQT
Sequence of FLT4 (P35916 whole entry): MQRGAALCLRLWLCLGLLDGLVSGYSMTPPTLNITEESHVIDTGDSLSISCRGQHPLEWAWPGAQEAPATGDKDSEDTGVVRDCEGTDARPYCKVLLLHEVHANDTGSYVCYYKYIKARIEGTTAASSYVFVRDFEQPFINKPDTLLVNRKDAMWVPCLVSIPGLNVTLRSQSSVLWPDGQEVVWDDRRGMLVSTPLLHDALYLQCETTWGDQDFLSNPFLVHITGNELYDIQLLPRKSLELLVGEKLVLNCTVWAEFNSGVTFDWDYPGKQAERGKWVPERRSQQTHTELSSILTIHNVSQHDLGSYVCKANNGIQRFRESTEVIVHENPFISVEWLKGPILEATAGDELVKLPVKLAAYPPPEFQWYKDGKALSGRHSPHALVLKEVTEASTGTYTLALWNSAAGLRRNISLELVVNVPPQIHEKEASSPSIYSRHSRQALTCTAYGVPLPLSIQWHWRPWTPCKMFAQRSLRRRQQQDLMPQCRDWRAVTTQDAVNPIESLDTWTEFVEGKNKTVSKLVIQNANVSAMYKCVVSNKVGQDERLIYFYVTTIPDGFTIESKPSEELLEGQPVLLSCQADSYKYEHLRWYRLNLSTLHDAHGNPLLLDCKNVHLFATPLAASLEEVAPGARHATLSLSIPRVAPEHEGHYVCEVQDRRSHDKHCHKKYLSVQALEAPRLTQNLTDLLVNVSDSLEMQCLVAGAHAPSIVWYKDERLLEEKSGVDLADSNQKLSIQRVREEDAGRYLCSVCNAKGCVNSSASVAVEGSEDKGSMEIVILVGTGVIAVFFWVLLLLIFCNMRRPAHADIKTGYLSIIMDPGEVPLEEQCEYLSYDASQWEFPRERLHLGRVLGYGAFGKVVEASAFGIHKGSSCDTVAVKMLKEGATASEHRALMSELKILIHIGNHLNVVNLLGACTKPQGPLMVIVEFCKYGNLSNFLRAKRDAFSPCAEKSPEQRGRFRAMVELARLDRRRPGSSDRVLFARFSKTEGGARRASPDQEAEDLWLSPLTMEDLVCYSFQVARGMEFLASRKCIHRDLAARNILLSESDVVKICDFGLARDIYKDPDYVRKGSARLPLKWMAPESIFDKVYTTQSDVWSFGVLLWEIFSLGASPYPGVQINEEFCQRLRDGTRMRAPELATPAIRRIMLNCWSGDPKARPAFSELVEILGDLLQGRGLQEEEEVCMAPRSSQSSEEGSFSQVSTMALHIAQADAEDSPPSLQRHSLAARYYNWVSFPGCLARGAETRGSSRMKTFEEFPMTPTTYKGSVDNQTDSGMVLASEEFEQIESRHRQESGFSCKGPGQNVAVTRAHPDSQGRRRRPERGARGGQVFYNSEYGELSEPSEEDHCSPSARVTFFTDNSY
Sequence of LATS2 (Q9NRM7 whole entry): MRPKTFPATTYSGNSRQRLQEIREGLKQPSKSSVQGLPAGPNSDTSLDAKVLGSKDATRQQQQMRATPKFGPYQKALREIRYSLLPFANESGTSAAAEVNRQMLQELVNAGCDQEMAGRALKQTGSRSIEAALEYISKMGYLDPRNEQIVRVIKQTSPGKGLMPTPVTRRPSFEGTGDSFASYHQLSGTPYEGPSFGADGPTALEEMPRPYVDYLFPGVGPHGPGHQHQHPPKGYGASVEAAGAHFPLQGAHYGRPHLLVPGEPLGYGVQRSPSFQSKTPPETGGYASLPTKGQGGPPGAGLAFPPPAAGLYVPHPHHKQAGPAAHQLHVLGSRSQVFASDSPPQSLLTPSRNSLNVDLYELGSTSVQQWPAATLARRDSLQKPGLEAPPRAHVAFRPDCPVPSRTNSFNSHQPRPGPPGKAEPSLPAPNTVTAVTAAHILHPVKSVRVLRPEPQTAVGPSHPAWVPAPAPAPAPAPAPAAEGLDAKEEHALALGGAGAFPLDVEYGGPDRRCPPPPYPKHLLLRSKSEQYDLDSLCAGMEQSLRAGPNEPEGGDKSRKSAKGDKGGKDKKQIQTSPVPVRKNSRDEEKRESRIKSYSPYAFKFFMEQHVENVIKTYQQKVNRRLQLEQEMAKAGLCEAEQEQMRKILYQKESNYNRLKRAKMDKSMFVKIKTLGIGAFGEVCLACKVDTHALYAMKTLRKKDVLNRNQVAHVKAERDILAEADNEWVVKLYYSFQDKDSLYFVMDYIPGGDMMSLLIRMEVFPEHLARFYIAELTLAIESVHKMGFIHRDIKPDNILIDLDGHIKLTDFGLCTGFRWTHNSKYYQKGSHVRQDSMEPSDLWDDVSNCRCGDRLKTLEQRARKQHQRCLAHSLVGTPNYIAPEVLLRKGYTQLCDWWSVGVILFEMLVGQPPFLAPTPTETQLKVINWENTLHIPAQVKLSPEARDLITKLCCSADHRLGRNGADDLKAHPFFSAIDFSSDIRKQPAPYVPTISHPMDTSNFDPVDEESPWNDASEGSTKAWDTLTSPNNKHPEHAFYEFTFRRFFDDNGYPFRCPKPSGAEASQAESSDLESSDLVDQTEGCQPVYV
Sequence of BLK (P51451 whole entry): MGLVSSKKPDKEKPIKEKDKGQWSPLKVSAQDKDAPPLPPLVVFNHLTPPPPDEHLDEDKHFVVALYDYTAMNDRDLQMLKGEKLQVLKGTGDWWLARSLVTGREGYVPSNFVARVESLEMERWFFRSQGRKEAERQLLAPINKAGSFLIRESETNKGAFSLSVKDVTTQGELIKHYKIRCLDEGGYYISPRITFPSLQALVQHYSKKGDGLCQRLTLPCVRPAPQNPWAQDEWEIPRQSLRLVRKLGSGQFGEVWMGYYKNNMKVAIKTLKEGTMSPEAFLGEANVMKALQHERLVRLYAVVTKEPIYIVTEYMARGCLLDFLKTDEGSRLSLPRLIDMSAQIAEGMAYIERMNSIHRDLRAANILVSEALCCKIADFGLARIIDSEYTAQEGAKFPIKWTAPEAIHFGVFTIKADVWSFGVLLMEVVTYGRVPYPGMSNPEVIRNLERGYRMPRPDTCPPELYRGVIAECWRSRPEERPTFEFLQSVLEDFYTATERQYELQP

Take `c1ccc2c(c1)Sc1ccccc1N2CCN1CCOCC1` [J54]: the remaining binding is 88% at ACVR1B; 86% at ACVR2A; 98% at ASK1; 52% on BIKE; 60% on BLK; 100% on CDC2L1. Also, the remaining binding at CHEK1 was 100%; at DCAMKL2, 100%; at FLT3(D835V) it was 46%; on FLT4, 96%; on HIPK4 it was 90%; on LATS2, 90%. In addition, the remaining binding is 97% at MLK2; 100% at MYO3A; 99% at PAK4; 100% on PIK3CB; 75% in [1]; 100% at S6K1.
